{"source": "patent US9205108B2", "about": "“Treatment of traumatic brain injury by using gallium compounds to reduce oxidative stress levels” (priority 2012, dated 2015)", "key": {"[1]": {"details": "100-300 mg/m²/day over 5-7 days; cited from earlier work"}, "protein carbonyls": {"system": "protein carbonyls", "test": "Protein carbonyl analysis (slot blot, 2,4-DNP) of whole brain homogenate after controlled cortical contusion", "type": "in vivo, C57BL/6NHsd mice", "details": "for Protein carbonyl: difference compared to control (sham): whole brain homogenate", "description": "(§1) Twenty C57BL/6NHsd mice were used for a study. Mice were set into five groups: sham, 15 minutes saline, 15 minutes gallium, 30 minutes gallium, and 30 minutes saline. A moderate controlled cortical contusion was given to all animals except the four animals in the sham group. The 15 minutes gallium group was injected with 10 mg/kg gallium nitrate at 15 minutes post injury. The 15 minutes saline group was injected with saline at 15 minutes post injury. The 30 minutes gallium group was injected with 10 mg/kg gallium nitrate at 30 minutes post injury. The 30 minutes saline group was injected with saline at 30 minutes post injury. A sample size of 4 was used for each group except gallium nitrate treated samples at 15 minutes post injury (n=3), gallium nitrate treated samples at 30 minutes post injury (n=5), and saline treated animals at 30 minutes (n=3).\n(§2) A gallium compound was delivered by injection, in particular, intraperitoneal injection. […] Due to this unequal pairing, statistics (Student's t-test) were performed using unpaired analysis. P values <0.05 were deemed significant. Western blots (slot blots) were run for all samples and immunoblotting was performed with the following antibodies 2,4-DNP (protein carbonyls) and anti-3-nitrotyrosine (protein nitration). All blots were run twice for reproducibility. All samples were compared to sham (craniotomy only, but no injury), which has been used as a baseline (control).\n(§3) The two parameters for oxidative stress were run on whole brain homogenate using immunochemical detection."}, "3-nitrotyrosine (3-NT)": {"system": "3-nitrotyrosine (3-NT)", "test": "Protein nitration analysis (slot blot, anti-3-nitrotyrosine) of whole brain homogenate after controlled cortical contusion", "type": "in vivo, C57BL/6NHsd mice", "details": "for Protein nitration (3-NT): difference compared to control (sham): whole brain homogenate", "description": "as §1, §2, §3\nProtein nitration is determined by indexing levels of 3-nitrotyrosine (3-NT). […] The difference between saline groups and the gallium groups at 30 minutes was statistically significant."}, "[2]": {"details": "10 mg/kg intraperitoneal injection at 15 minutes post injury"}, "[3]": {"details": "10 mg/kg intraperitoneal injection at 30 minutes post injury"}}, "data": [{"smiles": "O=[N+]([O-])[O-].O=[N+]([O-])[O-].O=[N+]([O-])[O-].[Ga+3]", "note": "[Gallium nitrate, gallium nitrate]", "values": [{"measurement": "Reduction of calcium excretion", "setting": "[1]", "value": "70+18%"}, {"measurement": "Protein carbonyl: difference compared to control (sham)", "setting": "protein carbonyls; [2]", "value": 17.5, "unit": "% reduction"}, {"measurement": "Protein carbonyl: difference compared to control (sham)", "setting": "protein carbonyls; [3]", "value": 6.6, "unit": "% reduction"}, {"measurement": "Oxidative stress (protein carbonyls), result in words", "setting": "protein carbonyls; both time points (15 and 30 minutes post injury)", "value": "reduction in oxidative stress"}, {"measurement": "Protein nitration (3-NT): difference compared to control (sham)", "setting": "3-nitrotyrosine (3-NT); [2]", "value": 61.3, "unit": "% increase"}, {"measurement": "Protein nitration (3-NT): difference compared to control (sham)", "setting": "3-nitrotyrosine (3-NT); [3]", "value": 18.1, "unit": "% increase"}, {"measurement": "Levels of 3-NT, result in words", "setting": "3-nitrotyrosine (3-NT); treatment at 15 minutes post injury", "value": "increase in the levels of 3-NT"}, {"measurement": "Levels of 3-NT, result in words", "setting": "3-nitrotyrosine (3-NT); treatment at 30 minutes post injury, difference to saline group statistically significant", "value": "significant reduction in the levels of 3-NT"}]}]}
